Patent US20120016010A1, “RNA Interference Mediated Inhibition of BTB and CNC Homology 1, Basic Leucine Zipper Transcription Factor 1 (BACH1) Gene Expression Using Short Interfering Nucleic Acid (siNA)” (Merck Sharp & Dohme Corp, priority 2009, published 2012)

What was measured:
Bach1 mRNA [1] = test: Initial screen: Bach1 mRNA knock-down in human A549 cells (96-well transfection, quantitative RT-PCR); type: cell-based; conditions: for % KD: Bach1 mRNA, 10 nM siNA, human A549 cells, n = 2, mean ± S.D., normalized to GAPDH and non-targeting control, 24 hrs post-transfection; for % KD Bach1: Table 5, Bach1 mRNA screening data, A549 cells
Bach1 mRNA [2] = test: Bach1 mRNA knockdown and potency in human bronchial epithelial cells (NHBE); type: cell-based; conditions: 48 hours post transfection, mean of 3 donors; for EC50: Bach1 mRNA knockdown; for Maximum mRNA knockdown: Bach1 mRNA
Protocol: The siNAs with Duplex ID numbers corresponding to 29961-DC, 29964-DC, 29984-DC, 29988-DC, 29957-DC, 29947-DC, and 29956-DC were tested for maximum Bach1 mRNA knockdown and for potency in human bronchial epithelial cells as follows.
Human Bronchial Epithelial cells (NHBE cells) obtained from Lonza (Cat. No. CC-2540) were grown at 37deg in the presence of 5% CO2 and cultured in BEBM basal medium (Lonza, Cat. No. CC-3171) on Biocoat Collagen1 coated flasks (Becton Dickinson).
NHBE cells were plated in collagen 1 coated plates and cultured in appropriate culture media. The cells were cultured for 24 hours after plating at 37 degrees in the presence of 5% CO2. siNAs were diluted in OptiMEM 1 to 1 uM and the transfection agent to 25 ug/ml. For formulation of the siNAs equal volumes of the diluted siNA and delivery lipid were combined and incubated for 20 minutes at room temperature. Cells were meanwhile trypsinised and resuspended in antibiotic free BEBM media at 150,000 cells/ml. 20 ul of the formulated siNA and 80 ul of BEBM media was added per well of a 96 well plate (6 replicates/data point/siNA concentration) so as to give a nine point dose range of the siNAs (100 nM, 30 nM, 10 nM, 3 nM, 1 nM, 0.3 nM, 0.1 nM, 0.03 nM, 0.01 nM). The time of incubation with the transfection-siNA complexes were 48 hours with one change of media at 24 hours.
Total RNA was isolated from the cells in the 96-well plate format using the Automated SV96 Total RNA Isolation System (Promega) according to the manufacturer's instructions. The Biomek 2000 Laboratory Automation Workstation (Beckman Coulter) was used to apply the transfected cell lysates to a silica membrane. RNase-Free DNase I was then applied directly to the silica membrane to digest contaminating genomic DNA. The bound total RNA was further purified from contaminating salts, proteins and cellular impurities by simple washing steps. Finally, total RNA was eluted from the membrane by the addition of Nuclease-Free Water.
A series of probes and primers were used for the detection of mRNA transcripts of Bach1, OAS1, IL8 and GAPDH (as control/normalisation) in the human cell lines. The assays were performed on an ABI 7900HT instrument according to the manufacturer's instructions. Primer Probe sets used:
With Taqman data critical threshold values (Ct) were converted to copy numbers corresponding to the particular gene analysed in each well of the 384 well plate. Six identical wells were prepared in each plate for a given treatment. […] Determination of the percentage coefficient of variation (CV) (% C.V.=[standard deviation/average]*100) allowed the omitting of wells whose value was an outlier (so that % C.V.<25). Relative abundance (aka relative expression) of a gene was determined by dividing the mean copy number of that gene with its GAPDH counterpart in that particular sample.
EC50 values were calculated from the data using sigma plot. All calculations of the efficacy and potency of the siNAs were done relative to the non-targeting control siNA. Percentage knockdown was compared between the four lead siNA's. The data was analysed using an ANOVA test and then the p-values were corrected for multiple comparisons using the False Discovery Rate correction (FDR).

Row | Substance | % KD (Bach1 mRNA [1]) [%] | % KD Bach1 (Bach1 mRNA [1]) [%] | EC50 (Bach1 mRNA [2]) [nM] | Maximum mRNA knockdown (Bach1 mRNA [2]) [%]
1 | 29947-DC (sense GGAAUCCUGCUUUCAGUUUTT; antisense AAACUGAAAGCAGGAUUCCUU; inverted abasic caps (B), 2'-modified nucleotides, further chemistry not given here) | 83.4 ± 6.9 | 83.4 ± 6.9 | 4.31 | 65
2 | 29956-DC (sense GUCUGAGUGUCCGUGGUUATT; antisense UAACCACGGACACUCAGACUU; inverted abasic caps (B), 2'-modified nucleotides, further chemistry not given here) | 75.8 ± 7.7 | 75.8 ± 7.7 | 2.16 | 68
3 | 29957-DC (sense GCAGUUACUUCCACUCAAGTT; antisense CUUGAGUGGAAGUAACUGCUU; inverted abasic end caps, TT overhangs, modified nucleotides, further chemistry not given here) | 84.6 ± 5.4 | 84.6 ± 5.4 | 0.95 | 70
4 | 29961-DC (sense CUACACUGCUAAACUGAUUTT; antisense AAUCAGUUUAGCAGUGUAGUU; inverted abasic end caps, TT overhangs, modified nucleotides, further chemistry not given here) | 90 ± 1.3 | 90 ± 1.3 | 7.87 | 80
5 | 29964-DC (sense GAUUUGCAGGUGAUGUUAATT; antisense UUAACAUCACCUGCAAAUCUU; inverted abasic end caps, TT overhangs, modified nucleotides, further chemistry not given here) | 90.1 ± 0.8 | 90.1 ± 0.8 | 9.52 | 72
6 | 29984-DC (sense GUUAAAGGAUUUGAACCUUTT; antisense AAGGUUCAAAUCCUUUAACUU; inverted abasic end caps, TT overhangs, modified nucleotides, further chemistry not given here) | 66.2 ± 15.3 | – | 23.2 | 65
7 | 29988-DC (sense AUUUGAACCUUUAAUUCAGTT; antisense CUGAAUUAAAGGUUCAAAUUU; inverted abasic end caps, TT overhangs, modified nucleotides, further chemistry not given here) | 86.2 ± 3.1 | 86.2 ± 3.1 | 3.84 | 70
